This passage reports Hemolysis and MIC results from paper PMC5902452, “In silico optimization of a guava antimicrobial peptide enables combinatorial exploration for peptide design” (Nature Communications, 2018).

As usually defined, the MIC is the lowest concentration that inhibits growth of the organism. A low value points to greater potency.

≈ marks a conversion by molar mass, not a printed value. Peptide text beside a SMILES is read from it.

The subject of one data set is human erythrocytes. In words: Hemolytic assay. The settings on record: SPOT-synthesized crude peptides; human red blood cells in NaCl 0.85%, 1 h, 37 °C; hemoglobin release at 546 nm; highest concentration 200 μg mL−1; 100% of hemolysis was not observed.
Data set [1] deals with P. aeruginosa H1001 (fliC::luxCDABE). Type of data set: cell-based, Pseudomonas aeruginosa. The settings on record: SPOT-synthesized unpurified crude peptide (~70% purity); bioluminescent engineered P. aeruginosa; BM2 medium; 4 h, 37 °C; reduction of luminescence; 200 to 3 μg mL−1 tested. As for the experimental part:
A peptide array composed of 20 peptides (15 guavanins, 4 Pg-AMP1 fragments, and magainin 2) was designed and synthesized by Kinexus Bioinformatics Corporation (Vancouver, BC). Peptides were produced in a standard mass of 80 μg by using cellulose support in SPOT technology. The crude synthetic peptides were obtained from cellulose membrane discs that had already been treated with ammonia gas to release the peptides from the membrane. Peptides were then dissolved overnight in distilled water and subsequently evaluated for their biological activities, as described below.
The antimicrobial activity of the synthesized peptides was evaluated against an engineered luminescent P. aeruginosa H1001 (fliC::luxCDABE) strain in 96-well microplates. Aqueous solutions of peptides released from the cellulose spots were diluted twofold in BM2 medium [62 mM potassium phosphate buffer pH 7; 2 mM MgSO4; 10 μM FeSO4; 0.4% (wt/vol) glucose] down the eight wells of a 96-well plate, achieving a final volume of 25 μL in each well. Subsequently, 50 μL of overnight culture of P. aeruginosa H1001 (fliC::luxCDABE) were subcultured in 5 mL of fresh LB media and grown until they reached an OD600 of 0.4. This growing bacteria culture was then diluted 4:100 (v/v) into fresh BM2 media and 25 μL of this diluted bacterial culture was transferred to the microplate wells containing 25 μL of peptide solution. The final peptide concentrations tested ranged from 200 to 3 μg mL^−1. The plates were incubated for 4 h at 37 °C with constant shaking at 50 rpm. Luminescence was measured on a Tecan […]luor Plus Microplate Reader (Tecan US, Morrisville, NC). The antimicrobial activity was evaluated by the ability of the peptides to reduce the luminescence of P. aeruginosa-lux strain compared to untreated cells. The AMP magainin 2 and the carbapenem meropenem were used as positive controls and distilled water was used as a negative control.

Method for human erythrocytes: Fresh human venous blood was collected from volunteers in Vacutainer collection tubes containing sodium heparin as an anticoagulant (BD Biosciences, Franklin Lakes, NJ). The blood was centrifuged applying 151 × g force (1500 rpm) and the serum was removed and the blood cells were replaced and washed three times with the same volume of sterile NaCl 0.85% solution. Concentrated red blood cells were diluted tenfold in NaCl 0.85% solution and then exposed at twofold dilutions of peptides for 1 h at 37 °C, at identical concentrations used for antimicrobial assays, in the ratio of 1:1 (v/v), achieving a final volume of 100 μL. The assay was carried out in 96-well polypropylene microtiter plates. The positive control wells contained 1% of Triton X-100, representing 100% cell lysis, and negative control wells contained sterile saline. Hemoglobin release was monitored chromogenically at 546 nm using a microplate reader.

The molecule `CSCC[C@H](NC(=O)[C@H](CCCNC(=N)N)NC(=O)[C@H](CO)NC(=O)[C@@H](N)CO)C(=O)N[C@@H](CCC(=O)O)C(=O)N[C@@H](CS)C(=O)N[C@@H](Cc1ccc(O)cc1)C(=O)N[C@@H](CCC(=O)O)C(=O)N[C@@H](CCC(N)=O)C(=O)N[C@@H](C)C(=O)N[C@@H](CCC(=O)O)C(=O)N[C@@H](CCCNC(=N)N)C(=O)N[C@@H](Cc1ccc(O)cc1)C(=O)NCC(=O)N[C@@H](Cc1ccc(O)cc1)C(=O)NCC(=O)NCC(=O)N[C@@H](Cc1ccc(O)cc1)C(=O)NCC(=O)NCC(N)=O` [Fragment 1 (α-helix)] (H-SSRMECYEQAERYGYGGYGG-NH2) had a Hemolysis in the data set with human erythrocytes greater than 200 µg/mL. This molecule displayed an MIC in data set [1] greater than 200 µg/mL. In the data set on human erythrocytes, `N=C(N)NCCC[C@H](NC(=O)CNC(=O)[C@H](CO)NC(=O)CNC(=O)[C@H](Cc1ccc(O)cc1)NC(=O)CNC(=O)CNC(=O)CNC(=O)[C@H](Cc1ccc(O)cc1)NC(=O)[C@H](CCCNC(=N)N)NC(=O)CNC(=O)CNC(=O)CNC(=O)[C@H](Cc1ccc(O)cc1)NC(=O)CNC(=O)CNC(=O)[C@H](Cc1ccc(O)cc1)NC(=O)CNC(=O)[C@H](Cc1ccc(O)cc1)NC(=O)[C@@H](N)CCCNC(=N)N)C(N)=O` [Fragment 2 (net charge)] (H-RYGYGGYGGGRYGGGYGSGR-NH2) registered a Hemolysis of 100 µg/mL. For the same molecule, in data set [1], the MIC was determined as 200 µg/mL (≈ 99.2 µM). `N=C(N)NCCC[C@H](NC(=O)CNC(=O)[C@H](CO)NC(=O)CNC(=O)[C@H](Cc1ccc(O)cc1)NC(=O)CNC(=O)CNC(=O)CNC(=O)[C@H](Cc1ccc(O)cc1)NC(=O)[C@H](CCCNC(=N)N)NC(=O)CNC(=O)CNC(=O)CNC(=O)[C@H](Cc1ccc(O)cc1)NC(=O)CNC(=O)CNC(=O)[C@H](Cc1ccc(O)cc1)NC(=O)CNC(=O)[C@@H](N)Cc1ccc(O)cc1)C(=O)NCC(N)=O` [Fragment 3 (hydrophobicity)] (H-YGYGGYGGGRYGGGYGSGRG-NH2) returned a Hemolysis with human erythrocytes greater than 200 µg/mL. In data set [1], this molecule came in with an MIC greater than 200 µg/mL. `CC(C)[C@H](NC(=O)CNC(=O)[C@H](CCC(N)=O)NC(=O)CNC(=O)[C@@H](NC(=O)[C@@H]1CCCN1C(=O)[C@H](CCC(N)=O)NC(=O)CN)C(C)C)C(=O)N[C@@H](CCC(=O)O)C(=O)N[C@@H](CCCNC(=N)N)C(=O)N[C@@H](CO)C(=O)N[C@@H](Cc1c[nH]cn1)C(=O)N[C@@H](CC(=O)O)C(=O)N[C@@H](CC(=O)O)C(=O)N[C@@H](CC(N)=O)C(=O)N[C@@H](CCCNC(=N)N)C(=O)N[C@@H](CC(N)=O)C(=O)N[C@@H](CCC(N)=O)C(=O)N1CCC[C@H]1C(=O)N[C@@H](CCCNC(=N)N)C(N)=O` [Fragment 4 (hydrophobic moment)] (H-GQPVGQGVERSHDDNRNQPR-NH2) yielded a Hemolysis in the data set on human erythrocytes greater than 200 µg/mL. This molecule gave an MIC in data set [1] greater than 200 µg/mL. The molecule `CC[C@H](C)[C@H](NC(=O)[C@H](CCCNC(=N)N)NC(=O)[C@H](CCC(=O)O)NC(=O)[C@H](Cc1ccc(O)cc1)NC(=O)[C@H](CCC(N)=O)NC(=O)[C@H](CCCCN)NC(=O)[C@H](CCSC)NC(=O)CNC(=O)[C@H](CCCNC(=N)N)NC(=O)[C@@H](N)CCCNC(=N)N)C(=O)N[C@@H](CO)C(=O)N[C@@H](CCCNC(=N)N)C(=O)N[C@@H](CC(=O)O)C(=O)N[C@@H](C)C(=O)N[C@@H](CC(N)=O)C(=O)N[C@@H](CCCNC(=N)N)C(=O)N[C@@H](CO)C(=O)N[C@@H](Cc1ccc(O)cc1)C(=O)N[C@@H](CCCNC(=N)N)C(=O)N[C@@H](CCCNC(=N)N)C(N)=O` [Guavanin 1] (H-RRGMKQYERISRDANRSYRR-NH2) yielded a Hemolysis in the data set on human erythrocytes greater than 200 µg/mL. Besides, in data set [1], the MIC was 200 µg/mL (≈ 77 µM). The like results for `CC[C@H](C)[C@H](NC(=O)[C@H](C)NC(=O)[C@H](CCC(=O)O)NC(=O)[C@H](CCC(=O)O)NC(=O)[C@H](Cc1ccc(O)cc1)NC(=O)[C@H](CCC(N)=O)NC(=O)[C@H](CCCNC(=N)N)NC(=O)[C@H](CCSC)NC(=O)[C@H](Cc1ccc(O)cc1)NC(=O)[C@H](CCCCN)NC(=O)[C@@H](N)CCCNC(=N)N)C(=O)N[C@@H](CCCNC(=N)N)C(=O)N[C@@H](CC(=O)O)C(=O)NCC(=O)N[C@@H](CC(N)=O)C(=O)N[C@@H](CCCNC(=N)N)C(=O)N[C@@H](CO)C(=O)N[C@H](C(=O)N[C@@H](CCCNC(=N)N)C(=O)N[C@@H](CCCNC(=N)N)C(N)=O)[C@@H](C)CC` [Guavanin 3] (H-RKYMRQYEEAIRDGNRSIRR-NH2) were, in that order, greater than 200 µg/mL and greater than 200 µg/mL.

In the data set on human erythrocytes, `CSCC[C@H](NC(=O)[C@H](Cc1ccc(O)cc1)NC(=O)[C@H](CCC(N)=O)NC(=O)[C@@H](N)CCCNC(=N)N)C(=O)N[C@@H](CCCNC(=N)N)C(=O)N[C@@H](Cc1ccc(O)cc1)C(=O)N[C@@H](CC(C)C)C(=O)N[C@@H](CCC(=O)O)C(=O)N[C@@H](CCC(N)=O)C(=O)N[C@@H](C)C(=O)N[C@@H](CCC(=O)O)C(=O)N[C@@H](CCCNC(=N)N)C(=O)N[C@@H](Cc1ccc(O)cc1)C(=O)N[C@H](C(=O)N[C@@H](CC(N)=O)C(=O)N[C@@H](CCCNC(=N)N)C(=O)N[C@@H](CC(N)=O)C(=O)N[C@@H](CC(C)C)C(=O)N[C@@H](CCCNC(=N)N)C(=O)N[C@@H](CCCNC(=N)N)C(N)=O)C(C)C` [Guavanin 4] (H-RQYMRYLEQAERYVNRNLRR-NH2) displayed a Hemolysis greater than 200 µg/mL. The molecule also gave a minimal inhibitory concentration (MIC) in data set [1] of 100 µg/mL (≈ 36.8 µM). The matching figures for `CC[C@H](C)[C@H](NC(=O)[C@H](CCCNC(=N)N)NC(=O)[C@H](CC(N)=O)NC(=O)[C@H](Cc1ccccc1)NC(=O)[C@H](Cc1ccc(O)cc1)NC(=O)[C@H](CCCNC(=N)N)NC(=O)[C@H](Cc1ccccc1)NC(=O)[C@H](C)NC(=O)[C@H](CCC(=O)O)NC(=O)[C@H](CCC(=O)O)NC(=O)[C@H](Cc1ccc(O)cc1)NC(=O)[C@H](CCSC)NC(=O)[C@H](CCC(=O)O)NC(=O)[C@H](CCSC)NC(=O)[C@H](CC(C)C)NC(=O)[C@H](CCCCN)NC(=O)[C@@H](N)CCCNC(=N)N)C(=O)N[C@@H](CO)C(=O)N[C@@H](CCCNC(=N)N)C(=O)N[C@@H](CCCNC(=N)N)C(N)=O` [Guavanin 5] (H-RKLMEMYEEAFRYFNRISRR-NH2): greater than 200 µg/mL and 100 µg/mL (≈ 37.1 µM). The like results for `CC[C@H](C)[C@H](NC(=O)CNC(=O)[C@H](CCCNC(=N)N)NC(=O)[C@H](CC(N)=O)NC(=O)[C@H](Cc1ccccc1)NC(=O)[C@H](CO)NC(=O)[C@H](CCCNC(=N)N)NC(=O)[C@H](CO)NC(=O)[C@H](C)NC(=O)[C@H](CCC(N)=O)NC(=O)[C@H](CCCCN)NC(=O)[C@H](Cc1ccc(O)cc1)NC(=O)[C@H](CC(C)C)NC(=O)[C@H](CCC(=O)O)NC(=O)[C@H](CCSC)NC(=O)[C@@H](NC(=O)[C@H](CO)NC(=O)[C@@H](N)CCCNC(=N)N)[C@@H](C)CC)C(=O)N[C@@H](CCCNC(=N)N)C(=O)N[C@@H](CCCNC(=N)N)C(N)=O` [Guavanin 6] (H-RSIMELYKQASRSFNRGIRR-NH2) were, in that order, greater than 200 µg/mL and 100 µg/mL (≈ 40.5 µM). `CC[C@H](C)[C@H](NC(=O)[C@H](CO)NC(=O)[C@H](CCC(=O)O)NC(=O)[C@H](Cc1ccc(O)cc1)NC(=O)[C@@H](NC(=O)[C@H](CCC(N)=O)NC(=O)[C@@H](N)CCCNC(=N)N)[C@@H](C)CC)C(=O)N[C@@H](CCC(=O)O)C(=O)N[C@@H](CCC(N)=O)C(=O)N[C@@H](C)C(=O)N[C@@H](CC(C)C)C(=O)N[C@@H](CCCNC(=N)N)C(=O)N[C@@H](CCCNC(=N)N)C(=O)NCC(=O)N[C@@H](Cc1ccc(O)cc1)C(=O)N[C@@H](CCCNC(=N)N)C(=O)N[C@@H](CO)C(=O)N[C@@H](Cc1ccc(O)cc1)C(=O)N[C@@H](CCCNC(=N)N)C(=O)N[C@@H](CCCNC(=N)N)C(N)=O` [Guavanin 7] (H-RQIYESIEQALRRGYRSYRR-NH2): the Hemolysis in the data set on human erythrocytes was greater than 200 µg/mL. Besides, the minimum inhibitory concentration (MIC) in data set [1] came out at 200 µg/mL (≈ 76.9 µM). Molecule `CC[C@H](C)[C@H](NC(=O)CN)C(=O)NCC(=O)N[C@@H](CCCCN)C(=O)N[C@@H](Cc1ccccc1)C(=O)N[C@@H](CC(C)C)C(=O)N[C@@H](Cc1c[nH]cn1)C(=O)N[C@@H](CO)C(=O)N[C@@H](C)C(=O)N[C@@H](CCCCN)C(=O)N[C@@H](CCCCN)C(=O)N[C@@H](Cc1ccccc1)C(=O)NCC(=O)N[C@@H](CCCCN)C(=O)N[C@@H](C)C(=O)N[C@@H](Cc1ccccc1)C(=O)N[C@H](C(=O)NCC(=O)N[C@@H](CCC(=O)O)C(=O)N[C@H](C(=O)N[C@@H](CCSC)C(=O)N[C@@H](CC(N)=O)C(=O)N[C@@H](CO)C(N)=O)[C@@H](C)CC)C(C)C` [Magainin 2, reference compound] (H-GIGKFLHSAKKFGKAFVGEIMNS-NH2) came in with an MIC in data set [1] of 100 µg/mL (≈ 40.6 µM).
